Key:
Wzb [1] = target: T1, Wzb (Lacticaseibacillus rhamnosus, UniProt Q58Z13); experiment: pNPP hydrolysis, absorbance at […] nm; format: biochemical; details: 2.5 mM pNPP; MES-HEPES, 1% BSA; Cu2+ essential, Co2+ stimulates; optimum pH 7.3, 75 °C
T1 construct: 6His-tagged fusion, pQE30 (pGL387, wzb ORF in SacI-KpnI), E. coli NM522, purified under urea and renatured on Ni-NTA, 27 kDa; tag not reported as cut; forward primer starts at codon 2 (Ile)
T1 sequence (Q58Z13 2-254): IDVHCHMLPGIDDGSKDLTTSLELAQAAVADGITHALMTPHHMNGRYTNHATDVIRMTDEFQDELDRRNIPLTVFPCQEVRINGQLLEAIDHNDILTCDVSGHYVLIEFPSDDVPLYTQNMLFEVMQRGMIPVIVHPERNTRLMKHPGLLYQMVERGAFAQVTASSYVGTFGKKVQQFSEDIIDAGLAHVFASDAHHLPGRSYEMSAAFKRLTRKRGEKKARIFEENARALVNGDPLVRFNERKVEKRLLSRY

Wzb [2] = target: T1, Wzb; experiment: pNPP hydrolysis, absorbance at […] nm; format: biochemical; details: inhibitor; increasing inhibition from 1 mM to 100 mM, no residual activity at 100 mM (data not shown); substrate pNPP

Row | SMILES | pNPP hydrolysis, absorbance at 405 nm (Wzb [1]) | inhibition (Wzb [2])
1 | O=[N+]([O-])c1ccc(OP(=O)(O)O)cc1 [p-nitrophenyl-phosphate] | The purified Wzb fusion protein was active on p-nitrophenyl-phosphate (pNPP) | 
2 | [O]=[V]([OH])([OH])[OH] [sodium orthovanadate] |  | Wzb activity on pNPP was inhibited by sodium orthovanadate (Na3VO4)

From paper PMC2364625, “Characterization and site-directed mutagenesis of Wzb, an O-phosphatase from Lactobacillus rhamnosus” (BMC Biochemistry, 2008)
